# ChEMBL document CHEMBL5260845, “Flavone-based arylamides as potential anticancers: Design, synthesis and in vitro cell-based/cell-free evaluations” (2020)
# Activity calls are given as the source filed them. No cut-off for these calls is given here.
# Columns and labels:
# EKVX = experiment: Antiproliferative activity against human EKVX cells assessed as cell growth inhibition at 10 uM by SRB assay; assay type: functional
# HOP-92 = experiment: Antiproliferative activity against human HOP-92 cells assessed as cell growth inhibition at 10 uM by SRB assay; assay type: functional, cell-based
# Hs-578T = experiment: Antiproliferative activity against human Hs-578T cells assessed as inhibition of cell growth at 10 uM by SRB assay; assay type: functional, cell-based
# OVCAR-4 = experiment: Antiproliferative activity against human OVCAR-4 cells assessed as cell growth inhibition at 10 uM by SRB assay relative to control; assay type: functional
# CCRF-CEM [1] = experiment: Antiproliferative activity against human CCRF-CEM cells assessed as cell growth inhibition at 10 uM by SRB assay; assay type: functional, cell-based
# UO-31 = experiment: Antiproliferative activity against human UO-31 cells assessed as inhibition of cell growth at 10 uM by SRB assay relative to control; assay type: functional
# SF-295 [2] = experiment: Antiproliferative activity against human SF-295 cells assessed as cell growth inhibition at 10 uM by SRB assay; assay type: functional, cell-based
# IGROV-1 = experiment: Antiproliferative activity against human IGROV-1 cells assessed as cell growth inhibition at 10 uM by SRB assay relative to control; assay type: functional
# Malme-3M [3] = experiment: Antiproliferative activity against human Malme-3M cells assessed as cell growth inhibition at 10 uM by SRB assay relative to control; assay type: functional
# NCI-H226 = experiment: Antiproliferative activity against human NCI-H226 cells assessed as cell growth inhibition at 10 uM by SRB assay; assay type: functional
# SR [4] = experiment: Antiproliferative activity against human SR cells assessed as cell growth inhibition at 10 uM by SRB assay; assay type: functional, cell-based
# NCI-H522 = experiment: Antiproliferative activity against human NCI-H522 cells assessed as cell growth inhibition at 10 uM by SRB assay; assay type: functional, cell-based
# RPMI-8226 [5] = experiment: Antiproliferative activity against human RPMI-8226 cells assessed as cell growth inhibition at 10 uM by SRB assay; assay type: functional, cell-based
# BT-549 = experiment: Antiproliferative activity against triple negative human BT-549 cells assessed as inhibition of cell growth at 10 uM by SRB assay relative to control; assay type: functional
# K562 [6] = experiment: Antiproliferative activity against human K562 cells assessed as cell growth inhibition at 10 uM by SRB assay; assay type: functional, cell-based
# OVCAR-8 = experiment: Antiproliferative activity against human OVCAR-8 cells assessed as cell growth inhibition at 10 uM by SRB assay relative to control; assay type: functional
# SK-MEL-2 = experiment: Antiproliferative activity against human SK-MEL-2 cells assessed as cell growth inhibition at 10 uM by SRB assay relative to control; assay type: functional; conditions: Homo sapiens, SK-MEL-2, dose 10 µM
# NCI-H23 = experiment: Antiproliferative activity against human NCI-H23 cells assessed as cell growth inhibition at 10 uM by SRB assay; assay type: functional
# UACC-62 = experiment: Antiproliferative activity against human UACC-62 cells assessed as cell growth inhibition at 10 uM by SRB assay relative to control; assay type: functional
# MOLT-4 [7] = experiment: Antiproliferative activity against human MOLT-4 cells assessed as cell growth inhibition at 10 uM by SRB assay; assay type: functional, cell-based
# HL-60 [8] = experiment: Antiproliferative activity against human HL-60 cells assessed as cell growth inhibition at 10 uM by SRB assay; assay type: functional, cell-based
# SNB-75 [9] = experiment: Antiproliferative activity against human SNB-75 cells assessed as cell growth inhibition at 10 uM by SRB assay relative to control; assay type: functional
# SF-295 [10] = experiment: Antiproliferative activity against human SF-295 cells assessed as cell growth inhibition at 10 uM by SRB assay relative to control; assay type: functional
# SK-OV-3 = experiment: Antiproliferative activity against human SK-OV-3 cells assessed as inhibition of cell growth at 10 uM by SRB assay relative to control; assay type: functional
# SR [11] = experiment: Antiproliferative activity against human SR cells assessed as cell growth inhibition at 10 uM by SRB assay relative to control; assay type: functional
# CCRF-CEM [12] = experiment: Antiproliferative activity against human CCRF-CEM cells assessed as cell growth inhibition at 10 uM by SRB assay relative to control; assay type: functional
# HL-60 [13] = experiment: Antiproliferative activity against human HL-60 cells assessed as cell growth inhibition at 10 uM by SRB assay relative to control; assay type: functional
# K562 [14] = experiment: Antiproliferative activity against human K562 cells assessed as cell growth inhibition at 10 uM by SRB assay relative to control; assay type: functional
# RPMI-8226 [15] = experiment: Antiproliferative activity against human RPMI-8226 cells assessed as cell growth inhibition at 10 uM by SRB assay relative to control; assay type: functional
# MOLT-4 [16] = experiment: Antiproliferative activity against human MOLT-4 cells assessed as cell growth inhibition at 10 uM by SRB assay relative to control; assay type: functional
# Prostatic carcinoma cell = experiment: Antiproliferative activity against human prostatic carcinoma cells assessed as cell growth inhibition at 10 uM by SRB assay relative to control; assay type: functional
# Malme-3M [17] = experiment: Antiproliferative activity against human Malme-3M cells assessed as cell growth inhibition at 10 uM by SRB assay; assay type: functional, cell-based
# CAKI-1 = experiment: Antiproliferative activity against human CAKI-1 cells assessed as inhibition of cell growth at 10 uM by SRB assay relative to control; assay type: functional
# [18] = Antiproliferative activity against human colon cancer cells assessed as cell growth inhibition at 10 uM by SRB assay relative to control; assay type: functional; conditions: Colon carcinoma cell
# RXF 393 = experiment: Antiproliferative activity against human RXF 393 cells assessed as inhibition of cell growth at 10 uM by SRB assay relative to control; assay type: functional
# T47D = experiment: Antiproliferative activity against estrogen receptor positive human T47D cells assessed as inhibition of cell growth at 10 uM by SRB assay relative to control; assay type: functional
# HCT-116 = experiment: Antiproliferative activity against human HCT-116 cells assessed as cell growth inhibition at 10 uM by SRB assay relative to control; assay type: functional
# [19] = Antiproliferative activity against human hematologic cancer cells assessed as cell growth inhibition at 10 uM by SRB assay relative to control; assay type: functional
# M14 = experiment: Antiproliferative activity against human M14 cells assessed as cell growth inhibition at 10 uM by SRB assay; assay type: functional, cell-based
# ACHN = experiment: Antiproliferative activity against human ACHN cells assessed as inhibition of cell growth at 10 uM by SRB assay relative to control; assay type: functional; conditions: pooled result: one value given for 2 cell lines, strains, targets or settings
# LOX IMVI = experiment: Antiproliferative activity against human LOX IMVI cells assessed as cell growth inhibition at 10 uM by SRB assay; assay type: functional, cell-based
# Renal cancer cell line = experiment: Antiproliferative activity against human renal cancer cells assessed as cell growth inhibition at 10 uM by SRB assay relative to control; assay type: functional
# U-251 = experiment: Antiproliferative activity against human U-251 cells assessed as cell growth inhibition at 10 uM by SRB assay; assay type: functional, cell-based
# SNB-75 [20] = experiment: Antiproliferative activity against human SNB-75 cells assessed as cell growth inhibition at 10 uM by SRB assay; assay type: functional, cell-based
# SF-268 = experiment: Antiproliferative activity against human SF-268 cells assessed as cell growth inhibition at 10 uM by SRB assay; assay type: functional, cell-based
# SF-539 = experiment: Antiproliferative activity against human SF-539 cells assessed as cell growth inhibition at 10 uM by SRB assay; assay type: functional, cell-based
# SNB-19 = experiment: Antiproliferative activity against human SNB-19 cells assessed as cell growth inhibition at 10 uM by SRB assay; assay type: functional, cell-based
Compound,inhibition at 10 µM (EKVX) [%],inhibition (HOP-92),inhibition (Hs-578T),inhibition (CCRF-CEM [1]),inhibition (UO-31),inhibition (SF-295 [2]),inhibition at 10 µM (NCI-H226) [%],inhibition (SR [4]),inhibition (NCI-H522),inhibition (RPMI-8226 [5]),inhibition (K562 [6]),inhibition at 10 µM (SK-MEL-2) [%],inhibition at 10 µM (NCI-H23) [%],inhibition (MOLT-4 [7]),inhibition (HL-60 [8]),inhibition at 10 µM (SR [11]) [%],inhibition at 10 µM (CCRF-CEM [12]) [%],inhibition at 10 µM (HL-60 [13]) [%],inhibition at 10 µM (K562 [14]) [%],inhibition at 10 µM (RPMI-8226 [15]) [%],other results
COc1cc2oc(-c3cccc(NC(=O)c4ccc([N+](=O)[O-])cc4)c3)cc(=O)c2c(OC)c1OC,< 50,Active,Active,Active,Active,Active,< 50,Active,Active,Active,Active,≤ 46,< 50,Active,Active,,,,,,inhibition at 10 µM (OVCAR-4): 57.3%; inhibition at 10 µM (IGROV-1): 57.3%; inhibition at 10 µM (Malme-3M [3]): 70.2%; inhibition at 10 µM (BT-549): 77%; inhibition at 10 µM (OVCAR-8): 57.3%; inhibition at 10 µM (UACC-62): 52.1%
Cn1nnc2c(C(N)=O)ncn2c1=O [TEMOZOLOMIDE],,,,,,,,,,,,,,,,,,,,,inhibition at 10 µM (SNB-75 [9]): 40.8%; inhibition at 10 µM (SF-295 [10]): 29.8%
CC(=O)O[C@H]1C(=O)[C@@]2(C)[C@H]([C@H](OC(=O)c3ccccc3)[C@]3(O)C[C@H](OC(=O)[C@H](O)[C@@H](NC(=O)c4ccccc4)c4ccccc4)C(C)=C1C3(C)C)[C@]1(OC(C)=O)CO[C@@H]1C[C@@H]2O [PACLITAXEL],,,,,,,,,,,,,,,,,,,,,inhibition at 10 µM (OVCAR-4): 113%; inhibition at 10 µM (SK-OV-3): 57.1%
COc1cc2oc(-c3ccc(NC(=O)c4ccc(C)cc4)cc3)cc(=O)c2c(OC)c1OC,< 50,Active,Active,,Active,Active,< 50,,Active,,,≤ 46,< 50,,,≤ 42.6,≤ 42.6,≤ 42.6,≤ 42.6,≤ 42.6,inhibition at 10 µM (MOLT-4 [16]): ≤ 42.6%
COc1cc2oc(-c3cccc(NC(=O)c4ccc(Cl)cc4)c3)cc(=O)c2c(OC)c1OC,< 50,Active,Active,Active,,Active,< 50,Active,Active,Active,Active,≤ 46,< 50,Active,Active,,,,,,inhibition at 10 µM (Prostatic carcinoma cell): > 50%; inhibition (Malme-3M [17]): Active; inhibition at 10 µM (CAKI-1): 51.1%; inhibition at 10 µM [18]: > 50%; inhibition at 10 µM (RXF 393): 51.1%; inhibition at 10 µM (T47D): 62.2%; inhibition at 10 µM (HCT-116): 88%; inhibition at 10 µM [19]: > 50%; inhibition (M14): Active; inhibition at 10 µM (ACHN): 51.1%; inhibition (LOX IMVI): Active; inhibition at 10 µM (Renal cancer cell line): > 50%
COc1cc2oc(-c3ccc(NC(=O)c4ccc(F)cc4)cc3)cc(=O)c2c(OC)c1OC,< 50,Active,Active,,Active,Active,< 50,,Active,,,,< 50,,,≤ 42.6,≤ 42.6,≤ 42.6,≤ 42.6,≤ 42.6,inhibition at 10 µM (MOLT-4 [16]): ≤ 42.6%
COc1cc2oc(-c3cccc(NC(=O)c4cccc(Br)c4)c3)cc(=O)c2c(OC)c1OC,< 50,Active,Active,Active,Active,Active,< 50,Active,Active,Active,Active,≤ 46,< 50,Active,Active,,,,,,inhibition at 10 µM (Prostatic carcinoma cell): > 50%; inhibition at 10 µM [18]: > 50%; inhibition at 10 µM (T47D): 72.3%; inhibition at 10 µM [19]: > 50%
COc1cc2oc(-c3cccc(NC(=O)c4cccc(Br)c4)c3)cc(=O)c2c(O)c1OC,,,,,,inactive,,,,,,,,,,,,,,82.6,inhibition (U-251): inactive; inhibition (SNB-75 [20]): inactive; inhibition (SF-268): inactive; inhibition (SF-539): inactive; inhibition (SNB-19): inactive
COc1cc2oc(-c3ccc(NC(=O)c4ccc(Cl)cc4)cc3)cc(=O)c2c(OC)c1OC,< 50,Active,Active,,Active,Active,< 50,,Active,,,,< 50,,,≤ 42.6,≤ 42.6,≤ 42.6,≤ 42.6,≤ 42.6,inhibition at 10 µM (MOLT-4 [16]): ≤ 42.6%
COc1cc2oc(-c3ccc(NC(=O)c4ccc(C(F)(F)F)cc4)cc3)cc(=O)c2c(OC)c1OC,< 50,Active,Active,,Active,Active,< 50,,Active,,,,< 50,,,≤ 42.6,≤ 42.6,≤ 42.6,≤ 42.6,≤ 42.6,inhibition at 10 µM (MOLT-4 [16]): ≤ 42.6%
COc1cc2oc(-c3ccc(NC(=O)c4cccc(Br)c4)cc3)cc(=O)c2c(O)c1OC,,,,,,inactive,,,,,,,,,,,,,,82.6,inhibition (U-251): inactive; inhibition (SNB-75 [20]): inactive; inhibition (SF-268): inactive; inhibition (SF-539): inactive; inhibition (SNB-19): inactive
COc1cc2oc(-c3cccc(NC(=O)c4ccc(F)cc4)c3)cc(=O)c2c(OC)c1OC,< 50,Active,Active,Active,Active,Active,< 50,Active,Active,Active,Active,≤ 46,< 50,Active,Active,,,,,,inhibition at 10 µM (T47D): 51.3%
